Key:
[1] = target: T1, Amine oxidase [copper-containing] 3 (Homo sapiens, UniProt Q16853); assay: Inhibitory Activity of Human Recombinant SSAO/VAP-1
T1 sequence (Q16853 whole entry): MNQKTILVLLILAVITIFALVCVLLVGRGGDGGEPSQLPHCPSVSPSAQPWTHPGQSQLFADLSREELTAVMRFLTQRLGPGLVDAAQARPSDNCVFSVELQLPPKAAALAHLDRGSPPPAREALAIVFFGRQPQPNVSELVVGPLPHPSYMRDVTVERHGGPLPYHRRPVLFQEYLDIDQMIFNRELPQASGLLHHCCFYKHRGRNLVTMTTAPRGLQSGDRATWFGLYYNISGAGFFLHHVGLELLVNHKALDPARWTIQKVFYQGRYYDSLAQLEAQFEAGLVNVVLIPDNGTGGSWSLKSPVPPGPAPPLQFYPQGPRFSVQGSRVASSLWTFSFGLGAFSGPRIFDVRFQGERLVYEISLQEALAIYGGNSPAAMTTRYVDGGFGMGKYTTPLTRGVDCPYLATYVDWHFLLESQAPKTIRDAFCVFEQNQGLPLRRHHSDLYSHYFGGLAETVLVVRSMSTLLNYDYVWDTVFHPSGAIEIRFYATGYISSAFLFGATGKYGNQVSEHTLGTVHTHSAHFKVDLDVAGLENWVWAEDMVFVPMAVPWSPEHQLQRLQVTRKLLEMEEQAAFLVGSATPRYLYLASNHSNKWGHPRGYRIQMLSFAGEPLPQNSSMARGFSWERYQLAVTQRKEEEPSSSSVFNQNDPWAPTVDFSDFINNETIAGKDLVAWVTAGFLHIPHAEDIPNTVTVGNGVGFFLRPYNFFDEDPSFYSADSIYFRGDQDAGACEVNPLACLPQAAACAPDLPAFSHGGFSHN
Description: Test purpose: The following method is used to determine the inhibitory activity of the compounds in the examples of the present invention on human recombinant SSAO/VAP-1.Test Materials:Human recombinant SSAO/VAP-1 (VAP-1, human) was purchased from Sigma, Cat. No. SRP6241;Amplex Red Monoamine Oxidase Assay Kit was purchased from Invitrogen, Cat. No. A12214;384-well plate was purchased from Corning, Cat. No. 6005174;Amplex Red Hydrogen PeroxidePeroxidase Assay Kit was purchased from Invitrogen, Cat. No. A22188.Benzylamine hydrochloride was purchased from Sigma, Cat. No. B5136-25G;DMSO (Dimethyl Sulfoxide) was purchased from Sigma, Cat. No. D2650-100ML;Test Method:The test compound was dissolved in DMSO and diluted 4 times to a total of 10 concentrations. In a 384-well plate, 25 μL of human recombinant SSAO/VAP-1 (1.6 μg/mL) was added into each well. 100 nL of test compounds at different concentrations were added to each well containing human recombinant SSAO/VAP-1, and the plate was incubated at room temperature for 30 min. […] After 60 min, PerkinElmer's Envision was used to read the fluorescence value (RFU) under excitation at 530-560 nm and emission at 590 nm.

[2] = target: T2, Diamine oxidase [copper-containing] (Homo sapiens, UniProt P19801); assay: Inhibition of DAO (Diamine Oxidase)
T2 construct: gene AOC1
T2 sequence (P19801 20-751 limits assumed): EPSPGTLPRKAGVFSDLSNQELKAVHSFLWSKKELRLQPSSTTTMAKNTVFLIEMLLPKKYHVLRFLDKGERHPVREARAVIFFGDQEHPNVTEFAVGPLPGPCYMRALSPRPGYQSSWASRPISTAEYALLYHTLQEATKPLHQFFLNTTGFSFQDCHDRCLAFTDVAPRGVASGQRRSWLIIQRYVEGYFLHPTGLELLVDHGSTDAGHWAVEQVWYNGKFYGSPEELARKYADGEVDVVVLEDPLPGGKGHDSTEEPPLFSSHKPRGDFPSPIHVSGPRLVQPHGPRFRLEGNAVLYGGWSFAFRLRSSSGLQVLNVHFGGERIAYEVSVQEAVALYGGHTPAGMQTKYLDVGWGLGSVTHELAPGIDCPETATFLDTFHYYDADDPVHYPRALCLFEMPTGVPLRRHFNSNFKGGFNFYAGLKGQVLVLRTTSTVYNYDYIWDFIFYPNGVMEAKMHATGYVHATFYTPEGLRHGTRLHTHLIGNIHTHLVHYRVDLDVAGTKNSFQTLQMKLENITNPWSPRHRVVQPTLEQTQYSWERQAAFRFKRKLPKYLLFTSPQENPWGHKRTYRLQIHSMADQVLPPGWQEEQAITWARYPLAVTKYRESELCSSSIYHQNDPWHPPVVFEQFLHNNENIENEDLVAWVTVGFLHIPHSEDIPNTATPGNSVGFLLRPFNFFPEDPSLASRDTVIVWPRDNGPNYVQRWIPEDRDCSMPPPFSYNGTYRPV
Procedure: Test purpose: The following method is used to determine the selective inhibitory activity of the compound of the present invention on DAO.Test Materials:Human recombinant DAO (Recombinant Human ABP-1/DAO) was purchased from R&D, Cat. No. 8298-AO;Amplex Red Hydrogen PeroxidePeroxidase Assay Kit was purchased from Invitrogen, Cat. No. A22188;1,4-Diaminobutane dihydrochloride was purchased from Aladdin, Cat. No. D106194-25G.Test Method:The test compound was dissolved in DMSO and diluted 5 times to a total of 6 concentrations. In a 384-well plate, 24 μL of human recombinant DAO (1 μg/mL) was added into each well. 1 μL of test compounds at different concentrations were added to each well containing human recombinant DAO, and the plate was incubated at 37° C. for 30 min. After incubating for 30 min, 25 μL of Amplex Red Hydrogen Peroxide Peroxidase Assay Kit (containing 100 μM Amplex Red and 0.2 U/ml HRP) containing 1 M 1,4-butanediamine dihydrochloride was added into the corresponding wells, and the plate was incubated in the dark at 37° C. for 30 min. After 30 min, PHERAstar FSX microplate reader of BMG LABTECH was used to read the fluorescence value (RFU) under excitation at 540 nm and emission at 580 nm.

Compound: NC/C(=C/F)COc1ccc2c(c1)CCN(CC(N)=O)C2=O [US12258317, Example 2]
- IC50 [1]: 2.2 nM

Compound: NC/C(=C\F)COc1ccc2c(c1)CCN(CC(N)=O)C2=O [US12258317, Example 1]
- IC50 [1]: 6.29 nM
- IC50 [2]: > 1000 nM
